{
  "source": "patent US11773137B2",
  "about": "“Arid5a peptide inhibitors” (KING FAISAL UNIVERSITY, priority 2019, dated 2023)",
  "tested_on": "polarized Th17 cells",
  "assay": "IL-17 production by naïve CD4+ T cells cultured under Th17-polarizing conditions",
  "type": "cell-based",
  "conditions": "PIA at 15, 30 and 45 μM",
  "experimental": "Naïve CD4^+ T cells were isolated from the spleen using MACS® CD4^+CD62L^+ isolation kit (Miltenyi Biotec). The isolated CD4^+CD62L^+ T cells were cultured in the presence of anti-CD3/CD28 dynabeads (Invitrogen), IL-6 (30 ng/mL; R&D Systems), transforming growth factor TGF-β1 (4 ng/mL; R&D Systems), anti-interferon IFN-γ and anti-IL-4 (10 μg/mL; Biolegend) for 72 h.\nThe intensities of Arid5a immunoblot bands and IL-17 concentrations are presented as mean±SD from at least three independent experiments produced similar results. The statistical significance between mean values was tested by one-way ANOVA. *p<0.05 was considered significant.\nArid5a plays an important role in the production of IL-17, a cytokine that plays pivotal roles in chronic inflammation and autoimmune diseases such as MS and rheumatoid arthritis, and cancer. Therefore, the effects of PIA (SEQ ID NO: 2) on IL-17 production by naïve CD4^+ cells cultured under Th17-polarizing conditions were examined. The CD4^+CD62L^+ T cells were cultured in the presence of anti-CD3/CD28 dynabeads, IL-6, TGF-β1, anti-IFN-γ and anti-IL-4.",
  "note": "Where no end group is shown, it is not given here.",
  "data": [
    {"sequence": "ACTVGGYE [PIA, ACTVGGYE]", "values": [
      {"measurement": "cell viability", "value": "no significant effects on cell viability"}
    ]}
  ]
}
